Data taken from the supplement of paper PMC10627819.

What was measured:
S. pneumoniae D39V [1] = test: Bliss interaction score (quartile over a dose matrix) (fitness difference); higher = more antagonism (negative = synergy)
How it was run: (§1)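 Fitness is OD595 at stationary-phase entry relative to the plate's robust no-drug mean, capped at 1. Single-drug fitness was inferred from combinations. The Bliss score is observed minus product-expected fitness, summarised by quartiles over technical, biological and donor/recipient replicates.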

B. subtilis 168 = test: as above
How it was run: as §1

S. aureus Newman = test: as above
How it was run: as §1

S. aureus DSM 20231 = test: as above
How it was run: as §1

S. pneumoniae D39V [2] = test: fitness (endpoint OD595 vs no drug) (fraction); higher = more growth
How it was run: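 Plates with 384 wells were inoculated at OD595 0.01 using 30 µl of TSB, LB Lennox or CY, or 55 µl for S. pneumoniae. Incubation was at 37 °C, with OD595 measured every 30 min for 14 h. Fitness is the stationary-phase transition optical density over the robust mean of no-drug control wells, after first-reading background subtraction; it is capped at 1.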
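Throughout, for Bliss interaction score (quartile over a dose matrix): first quartile when negative (synergy) and third quartile when positive (antagonism).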

CC[C@H]1OC(=O)[C@H](C)[C@@H](O[C@H]2C[C@@](C)(OC)[C@@H](O)[C@H](C)O2)[C@H](C)[C@@H](O[C@@H]2O[C@H](C)C[C@H](N(C)C)[C@H]2O)[C@](C)(OC)C[C@@H](C)C(=O)[C@H](C)[C@@H](O)[C@]1(C)O [Clarithromycin] + CCC(C)C1C(=O)NC(=C)C(=O)NC(C(=O)NC(CSCC(C(=O)N1)NC(=O)/C(=C/C)/NC(=O)C(C(C)CC)N)C(=O)NC2C(SCC(NC(=O)CNC(=O)C3CCCN3C2=O)C(=O)NC(CCCCN)C(=O)NC4C(SCC(NC(=O)CNC(=O)C(NC(=O)C(NC(=O)C(NC(=O)CNC4=O)C)CC(C)C)CCSC)C(=O)NC(CC(=O)N)C(=O)NC(CCSC)C(=O)NC(CCCCN)C(=O)NC5C(SCC6C(=O)NC(C(=O)NC(CSC(C(C(=O)N6)NC(=O)C(NC5=O)C)C)C(=O)NC(CO)C(=O)NC(C(C)CC)C(=O)NC(CC7=CN=CN7)C(=O)NC(C(C)C)C(=O)NC(=C)C(=O)NC(CCCCN)C(=O)O)CC8=CN=CN8)C)C)C)CC(C)C [Nisin]
main component drawn
Settings | Bliss interaction score
B. subtilis 168 | 0.0377
S. aureus DSM 20231 | -0.0781
S. aureus Newman | -0.0489
S. pneumoniae D39V [1] | 0.0379

fitness, S. pneumoniae D39V [2], one replicate, main component drawn
Settings | first compound 0.007812 µg/mL | first compound 0.01562 µg/mL | first compound 0.03125 µg/mL
partner 1.6 µg/mL | 0.0546 | 0.105 | 0.0716
partner 3.2 µg/mL | 0.0468 | 0.0811 | 0.0837
partner 6.4 µg/mL | 0.0495 | 0.123 | 0.0731

S. pneumoniae D39V [2], main component drawn
Settings | fitness
first compound 0.0625 µg/mL, partner 0.4275 µg/mL | 0.704
first compound 0.0625 µg/mL, partner 1.71 µg/mL | 0.0947
first compound 0.07 µg/mL, partner 1.6 µg/mL | 0.0167
first compound 0.07 µg/mL, partner 3.2 µg/mL | 0.0245
first compound 0.07 µg/mL, partner 6.4 µg/mL | 0.0168
first compound 0.125 µg/mL, partner 0.4275 µg/mL | 0.233
first compound 0.125 µg/mL, partner 0.855 µg/mL | 0.118
first compound 0.125 µg/mL, partner 1.71 µg/mL | 0.0991
first compound 0.14 µg/mL, partner 1.6 µg/mL | 0.019
first compound 0.14 µg/mL, partner 3.2 µg/mL | 0.0272
first compound 0.14 µg/mL, partner 6.4 µg/mL | 0.0323
first compound 0.25 µg/mL, partner 0.4275 µg/mL | 0.0872
first compound 0.25 µg/mL, partner 0.855 µg/mL | 0.0757
first compound 0.25 µg/mL, partner 1.71 µg/mL | 0.0969
first compound 0.28 µg/mL, partner 1.6 µg/mL | 0.0103
first compound 0.28 µg/mL, partner 3.2 µg/mL | 0.0421
first compound 0.28 µg/mL, partner 6.4 µg/mL | 0.0171

CC[C@H]1OC(=O)[C@H](C)[C@@H](O[C@H]2C[C@@](C)(OC)[C@@H](O)[C@H](C)O2)[C@H](C)[C@@H](O[C@@H]2O[C@H](C)C[C@H](N(C)C)[C@H]2O)[C@](C)(OC)C[C@@H](C)C(=O)[C@H](C)[C@@H](O)[C@]1(C)O [Clarithromycin] + CCC[C@@H]1C[C@@H](C(=O)N[C@@H]([C@H]2O[C@H](SC)[C@H](O)[C@@H](O)[C@H]2O)[C@@H](C)O)N(C)C1 [Lincomycin]
Settings | Bliss interaction score
B. subtilis 168 | 0.103
S. aureus DSM 20231 | -0.12
S. aureus Newman | -0.144
S. pneumoniae D39V [1] | 0.0426

fitness, S. pneumoniae D39V [2], one replicate
Settings | first compound 0.007812 µg/mL | first compound 0.01562 µg/mL | first compound 0.03125 µg/mL
partner 0.2 µg/mL | 0.614 | 0.678 | 0.559
partner 0.4 µg/mL | 0.545 | 0.619 | 0.395
partner 0.8 µg/mL | 0.0517 | 0.0966 | 0.0574

fitness, S. pneumoniae D39V [2]
Settings | first compound 0.0625 µg/mL | first compound 0.07 µg/mL | first compound 0.125 µg/mL | first compound 0.14 µg/mL | first compound 0.25 µg/mL | first compound 0.28 µg/mL
partner 0.2 µg/mL | – | 0.0703 | – | 0.063 | – | 0.0359
partner 0.215 µg/mL | 0.656 | – | 0.487 | – | 0.328 | –
partner 0.4 µg/mL | – | 0.0783 | – | 0.0665 | – | 0.035
partner 0.43 µg/mL | 0.599 | – | 0.367 | – | 0.262 | –
partner 0.8 µg/mL | – | 0.0297 | – | 0.0353 | – | 0.0359
partner 0.86 µg/mL | 0.269 | – | 0.131 | – | 0.0936 | –
